Tests used:
[1] = test system: rat liver microsomes (membrane phospholipid peroxidation); assay: Antiperoxidative activity on rat liver microsomes, NADPH/Fe+2/ADP induced peroxidation (MDA formation); type: biochemical; details: for peroxidation inhibition / MDA: NADPH/Fe+2/ATP, Table 1-A; for MDA: control 42.5
Experimental: Before the final resuspension mitochondria ape washed with 0.125M KCl containing 15 mM Hepes/10 mM tris at pH=7.4. Rat liver microsomes are prepared as described by Ernster and Nordenbrand (Ernster, Nordenbrand K. Methods Enzymol. 1967, 10:574-80). […]
b) 20 mM Hepes-Tris buffer pH=7.4, 0.5 mM cumene hydroperoxide in the presence or in the absence of the compounds to be tested. The trials after incubation are interrupted with 1 ml 35% TCA which 30 mg BHT and 1 ml 1% TBA (thiobarbituric acid) have been added to. Subsequently the incubation is carried out for 15' at 90° C. in order to allow the development of the coloured adduct.
(§1) A common oxidation product, malonyldialdehyde (MDA), to the two oxidant systems described in (a) and in (b), is measured.
The formed MDA is evaluated by spectrophotometry at 532 nm and calculated by using a molar extinction coefficient of 156.000 (Buege J. A. and Aust S. D., Methods Enzymol., 52, 302-310, 1978).
The tested compounds are solubilized in the culture medium up to the desired concentrations (see tables 1-3). […]
The antiperoxidase activity is measured as % of inhibition of malonyldialdehyde formation.

[2] = test system: rat liver microsomes (membrane phospholipid peroxidation); assay: Antiperoxidative activity on rat liver microsomes, cumene hydroperoxide induced peroxidation (MDA formation); type: biochemical; details: for peroxidation inhibition / MDA: 0.5 mM cumene hydroperoxyde, Table 3; for MDA: control 12.8
Experimental: b) 20 mM Hepes-Tris buffer pH=7.4, 0.5 mM cumene hydroperoxide in the presence or in the absence of the compounds to be tested. […] Subsequently the incubation is carried out for 15' at 90° C. in order to allow the development of the coloured adduct.
as §1
The tested compounds are solubilized in the culture medium up to the desired concentrations (see tables 1-3).
As peroxidant agent 0.5 mM cumene hydroperoxyde is used. As oxidation index the formation of malonyldialdehyde (MDA) is measured (nmoles/mg protein).

[3] = test system: rat cerebellar granular cells; assay: Protection against glutamate neurotoxicity in rat cerebellar granular cell cultures; type: cell-based
Experimental: Primary cerebellar granular cell cultures are prepared from 8 days old Sprague-Dawly rats. Neurons are grown on 35 mm plates for 7-8 days. […] Glial cells proliferation is prevented by cytosine arabinose-furanoside.
Cells are washed in Locke solution free from Mg^2+ then replated in the conditionned culture medium.
The solution is diluted serially up to 10, 20 and 50 μM. The compounds at the desired concentrations are added to the cells at 37 ° C.; after 15' 50 μM glutamate free from Mg^2+ is added For 15 minutes at 22 ° C.
The cells are then washed 3 times with Locke solution, then added to the original culture medium and maintained at 37 ° C. in 5 % CO2 for 24 hours.
The cellular survival is measured by using a fluorescence microscope.

mast cells = assay: In vivo antidegranulating activity in rat mast cells (substance P induced); parameters: species or system Sprague Dawley rats; details: s.c. 20 mg/kg; substance P 10^-6 M in auricular pinna; substance P effect taken as 100% degranulation
Experimental: 1. In vivo antidegranulating activity in rat mast cells.
The pharmacological treatment is preceded (20 min. before) by the degranulating stimulus induced by P substance (10^-6 M) injected in the auricular pinna. After 20 minutes from the degranulating stimulus, the animals are sacrificed. Their tissues are then taken (auricular pavilion) for the morphological aspect analysis of the mast cells residing in the connective tissues after fixation and coloration with toluidine blue.
The inhibition level of the mast cells degranulation in the animal tissue treated with the tested compounds in comparison with the animals treated only with the degranulating agent is considered as the parameter of the biological activity.
*the inhibition percentage is calculated considering that the effect of
the substance P is maximum (100% of mast cells degranulation).

Solubility = type: physicochemical
C6 glioma cells = assay: Protection against 5 mM glutamate cytotoxicity in glioma C6 cultures; details: Rattus norvegicus, C6 glioma, 24 h, read-out: % Cell survival
[4] = test system: granular cerebellar cells; assay: Protection against 2 mM glutamate cytotoxicity in immature granular cerebellar cell cultures; details: Mus musculus, 24 h, read-out: % Cellular survival
Experimental: The tested compounds are solubilized in DMSO at a concentration of from 1 to 100 μM.

[5] = in vitro, 10 to 50 μM dose/effect relationship for the test compound

SMILES: Cc1c(C)c2c(c(C)c1O)CC(CC(=O)NCCO)O2 (stereo not drawn) [Example 1, 2-(2,3-dihydro-5-hydroxy-4,6,7-trimethylbenzofuran)-acetic acid 2 hydroxyethylamide]
- peroxidation inhibition ([1]; 10 μM): 21%
- MDA ([1]; 10 μM): 33.5 nmoles/mg prot.
- peroxidation inhibition ([1]; 20 μM): 49%
- MDA ([1]; 20 μM): 21.3 nmoles/mg prot.
- effect compared with the corresponding acid (in words) ([1]; Tab. 1-A and 3 (NADPH/Fe+2/ADP and cumene peroxide)): consistently higher than that of the comparison product namely the corresponding acid
- inhibition of the peroxidation induced by NADPH/Fe+2/ADP (in words) [1, 5]: able to inhibit the peroxidation induced by NADPH/Fe^+2 /ADP (a)
- peroxidation inhibition ([2]; 20 μM): 47%
- MDA ([2]; 20 μM): 6.84 nmoles/mg prot.
- peroxidation inhibition ([2]; 50 μM): 80%
- MDA ([2]; 50 μM): 2.5 nmoles/mg prot.
- inhibition of the peroxidation induced by cumene peroxide (in words) [2, 5]: able to inhibit the peroxidation induced by NADPH/Fe^+2 /ADP (a) and by cumene peroxide (b)
- viability at 10 µM ([3]; Rattus norvegicus, 24 h, 10 μM, against 50 μM glutamate, Table 4, control 100, read-out: cell survival): 33%
- viability at 20 µM ([3]; Rattus norvegicus, 24 h, 20 μM, against 50 μM glutamate, Table 4, control 100, read-out: cell survival): 50%
- viability at 50 µM ([3]; Rattus norvegicus, 24 h, 50 μM, against 50 μM glutamate, Table 4, control 100, read-out: cell survival): 85%
- protection against glutamate exogenous neurotoxicity (in words) ([3]; dose-effect relationship): able to protect against the glutamate exogenous neurotoxicity
- inhibition % (mast cells degranulation induced by substance P) (mast cells): 19%
- solubility (Solubility; organic solvent or mixture, in ethanol, DMSO, chloroform, read-out: solubility in org. solv.): > 10000 µg/mL
- water solubility (Solubility; water): slightly soluble
- viability at 1 µM (C6 glioma cells): 13%
- viability at 3 µM (C6 glioma cells): 88%
- viability at 10 µM (C6 glioma cells): 89%
- viability at 1 µM [4]: 31%
- viability at 3 µM [4]: 40%
- viability at 10 µM [4]: 94%

Source: patent publication US5480645A, “Hydroxyamines N-acyl derivatives having scavenger activity and useful in acute and chronic pathologies associated with peroxidation and inflammation phenomena” (LifeGroup S.p.A., priority 1992, dated 1996)
